From patent publication US7893072B2, “Trp-p8 active compounds and therapeutic treatment methods” (Genentech, Inc., priority 2003, dated 2011) come the findings set out here.

Read-outs that look alike come from different tables or passages of the source.

In assay [1] the target is T1, Trp-p8 (Homo sapiens, UniProt Q7Z2W7).
T1 construct: expressed in transfected cells; host or cells: 293 and PC3 cells expressing Trp-p8 (non-expressing controls: 293, PC3, PC3/neo)
Description: Calcium ion uptake / flux (FLIPR) in cells expressing Trp-p8. The assay is classed as cell-based. The settings on record: for Peak (FLIPR): maximum calcium ion flux at 10 microM. An excerpt: General methods and materials disclosed in R. Skyryma, et al., J. Physiology, 2000, 527.1, 71-83, for assessing and measuring calcium ion flux or cell uptake, and induction of apoptosis were adapted for use in the present disclosure and as illustrated herein. Other test methods and procedures such as described below, including cell line culturing, transfection, and in vivo and in vitro tumor growth inhibition, are readily apparent to one of ordinary skill in the art upon comprehending the disclosure.
Calcium ion uptake experiments were conducted as follows. Calcium uptake was measured for cells expressing Trp-p8 tumor antigen and for cells not expressing Trp-p8 tumor antigen after each cell line was contacted with cool-genic compounds of the present disclosure. […] Cells not expressing tumor antigen had essentially no observable calcium uptake over all of the cool-genic compound concentrations. […] Cell lines included non-expressing lines: 293, PC3, and PC3/neo; and tumor antigen expressing lines: […].

The test system of assay [2] is 293/Trp-p8.clone 18. As to the kind of experiment: IC50 on 293/Trp-p8.clone 18. The class given is cell-based, human. The settings on record: read-out: IC50 293/Trp-p8.c18. The method, then:
(§1) Human Cell Killing in vitro by Compounds that Activate Trp-p8. Referring to the Figures, in FIG. 1 the effectiveness of selected cool-genic compounds in human cell killing was evaluated. The order and potency of cool-genic compounds were compared in two related human cell lines, one was 293 cells expressing Trp-p8 and a second was matched 293 cells lacking (not expressing) Trp-p8 used as a control. There were about 50,000 cells per well at plating. The cool-genic compounds were added at plating. The cells were treated by exposing the cells to the individual compounds at varying concentrations over about 0.1 to about 1,000 microM for 72 hours. […] FIGS. 1A and 1C show the response of cells expressing Trp-p8 and treated with the indicated numbered or named coolgenic compounds. FIGS. 1B and 1D show the response of cells without (not expressing) Trp-p8 and also treated with the indicated coolgenic compounds. […] Compound IIa4-1 had the best kill (IC50<1 microM) for cells expressing Trp-p8.

Assay [3] has as its system 293/Trp-p8.clone 10. Description: IC50 on 293/Trp-p8.clone 10. The assay is classed as cell-based, human. Conditions: read-out: IC50 293/Trp-p8.c10. The method, then: as §1
The test system of assay [4] is PC3/Trp-p8.clone 21. Description: IC50 on PC3/Trp-p8.clone 21. The assay is classed as cell-based. Conditions: Homo sapiens, PC3/Trp-p8.clone 21, in duplicate.
Assay [5] has as its system 293 cells expressing Trp-p8. As to the kind of experiment: Human cell killing in vitro, 293 cells expressing Trp-p8. The assay is classed as cell-based. As to the method: as §1
Assay [6] has as its system PC3/Trp-p8. As to the kind of experiment: PC3/Trp-p8 cell killing. The assay is classed as cell-based, human.

T1 sequence (Q7Z2W7 whole entry): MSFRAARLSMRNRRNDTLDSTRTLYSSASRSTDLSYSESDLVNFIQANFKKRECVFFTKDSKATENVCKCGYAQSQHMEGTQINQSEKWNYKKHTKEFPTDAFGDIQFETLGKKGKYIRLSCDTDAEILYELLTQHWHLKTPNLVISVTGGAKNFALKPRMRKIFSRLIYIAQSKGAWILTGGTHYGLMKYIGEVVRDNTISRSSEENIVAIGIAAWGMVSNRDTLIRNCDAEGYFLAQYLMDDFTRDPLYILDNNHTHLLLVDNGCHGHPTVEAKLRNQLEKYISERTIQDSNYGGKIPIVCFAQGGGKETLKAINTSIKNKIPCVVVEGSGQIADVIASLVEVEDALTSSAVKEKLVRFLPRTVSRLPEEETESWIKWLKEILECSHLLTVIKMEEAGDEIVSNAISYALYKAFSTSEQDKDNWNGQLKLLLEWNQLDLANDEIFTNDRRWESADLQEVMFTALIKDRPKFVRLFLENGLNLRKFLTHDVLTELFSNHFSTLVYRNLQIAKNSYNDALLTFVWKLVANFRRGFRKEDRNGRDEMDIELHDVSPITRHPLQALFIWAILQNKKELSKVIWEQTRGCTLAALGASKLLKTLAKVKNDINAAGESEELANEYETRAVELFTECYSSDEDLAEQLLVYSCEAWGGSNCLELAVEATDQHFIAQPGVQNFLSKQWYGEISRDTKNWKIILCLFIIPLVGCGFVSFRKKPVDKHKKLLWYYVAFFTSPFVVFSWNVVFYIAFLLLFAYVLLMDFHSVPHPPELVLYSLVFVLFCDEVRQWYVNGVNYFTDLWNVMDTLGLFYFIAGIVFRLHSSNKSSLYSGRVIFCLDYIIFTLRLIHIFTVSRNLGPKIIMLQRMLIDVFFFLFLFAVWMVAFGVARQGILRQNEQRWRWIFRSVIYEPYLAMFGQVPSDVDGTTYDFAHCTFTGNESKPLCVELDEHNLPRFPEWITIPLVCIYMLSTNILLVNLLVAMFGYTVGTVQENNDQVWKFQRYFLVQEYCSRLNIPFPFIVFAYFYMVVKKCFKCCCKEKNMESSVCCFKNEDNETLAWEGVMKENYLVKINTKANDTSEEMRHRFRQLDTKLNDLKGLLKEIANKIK

With `CNC(=O)C(C)(C(C)C)C(C)C` [III-1], the “Peak (FLIPR)” value in assay [1] is recorded as 5,000.
Regarding `CC1CCC(C(C)C)C(C(=O)O)C1` (centres unmarked) [Compound V-1], the “Peak (FLIPR)” value in assay [1] was 9,600.
For the compound `CC(C)[C@@H]1CC[C@@H](C)C[C@H]1C(=O)Nc1ccc(O)cc1` [IIa4-3], the IC50 turned out to be 1.05 µM in assay [2] (Homo sapiens), 1.23 µM in assay [3] (Homo sapiens) and 4.27 µM in assay [4].
Regarding `COc1ccccc1NC(=O)[C@@H]1C[C@H](C)CC[C@H]1C(C)C` [IIa8-1], the results for the IC50 in assay [2] (Homo sapiens) and in assay [3] (Homo sapiens) were 17.6 µM and 16.7 µM, respectively.
In the case of `COc1ccc(NC(=O)[C@@H]2C[C@H](C)CC[C@H]2C(C)C)cc1F` [IIa6-1], the figures for the IC50 in assay [2] (Homo sapiens) and in assay [3] (Homo sapiens) were 0.6 µM and 0.79 µM, respectively.
Turning to `CC(C)[C@@H]1CC[C@@H](C)C[C@H]1C(=O)Nc1cccc(F)c1` [IIa10-2], the IC50 is 2.91 µM in assay [2] (Homo sapiens) and 6.31 µM in assay [3] (Homo sapiens).
Turning to `CCC(C)c1ccc(NC(=O)[C@@H]2C[C@H](C)CC[C@H]2C(C)C)cc1` (some centres unmarked) [IIa4-10, 2-Isopropyl-5-methyl-cyclohexanecarboxylic acid(4-sec-butyl-phenyl)-amide], the IC50 in assay [2] (Homo sapiens) is 1.08 µM; in assay [3] (Homo sapiens), 3.59 µM.
For `COc1ccc(NC(=O)C2CC(C)CCC2C(C)C)cc1` (centres unmarked) [IIa4-1, 2-Isopropyl-5-methyl-cyclohexanecarboxylic acid(4-methoxy-phenyl)-amide], in assay [1] (cells expressing Trp-p8, about 0.0001 to about 10 microM), the calcium uptake result is reported as “particularly high calcium uptake”. The “Peak (FLIPR)” value in assay [1] is 31,000. Also, in assay [5], the “293/Trp-p8 Cell Killing” value is reported as “Yes”. Also, the IC50 was below 1 µM in assay [5] (Homo sapiens, HEK293, 72 hours, about 50,000 cells per well, read-out: IC50 (kill) for cells expressing Trp-p8); 0.58 µM in assay [2] (Homo sapiens); 0.45 µM in assay [2]; 0.42 µM in assay [3] (Homo sapiens); 1.64 µM in assay [4]. In assay [6], the “PC3/Trp-p8 Cell Killing” value is listed as “Yes”.
`CC1CCC(C(C)C)C(C(=O)NC(C)(C)CO)C1` (centres unmarked) [IIb-3]: in assay [1], the “Peak (FLIPR)” value is recorded as 25,100. For the same compound, the “293/Trp-p8 Cell Killing” value in assay [5] is “Yes”. Further, the “PC3/Trp-p8 Cell Killing” value in assay [6] is “Yes”.
`CC(C)[C@@H]1CC[C@@H](C)C[C@H]1C(=O)Nc1ccc(Cl)cc1` [IIa4-5]: the IC50 worked out at 17.6 µM in assay [2] (Homo sapiens) and 1.99 µM in assay [3] (Homo sapiens).
For `CCCCCP(=O)(C(C)CC)C(C)CC` (centres unmarked) [IV-2], the “Peak (FLIPR)” value in assay [1] is 29,000.
Consider `CC(C)[C@@H]1CC[C@@H](C)C[C@H]1C(=O)Nc1ccc(F)cc1` [IIa4-6], for which the IC50 in assay [2] (Homo sapiens) stood at 3.78 µM; in assay [3] (Homo sapiens), 3.58 µM.
For `CCc1ccc(NC(=O)[C@@H]2C[C@H](C)CC[C@H]2C(C)C)cc1` [IIa4-8] the same measures were 0.68 µM and 0.73 µM.
As for `CCNC(=O)C1CC(C)CCC1C(C)C` (centres unmarked) [IIb-1], the “Peak (FLIPR)” value in assay [1] is given as 25,000.
Regarding `COc1ccc(NC(=O)C2CC(C)CCC2C(C)C)cc1Cl` (centres unmarked) [IIa6-2, 2-Isopropyl-5-methyl-cyclohexanecarboxylic acid(3-chloro-4-methoxy-phenyl)-amide], the figures for the IC50 in assay [2] and in assay [3] were 2.57 µM and 3.1 µM, respectively.
Turning to `COc1cccc(NC(=O)[C@@H]2C[C@H](C)CC[C@H]2C(C)C)c1` [IIa10-1], the figures for the IC50 in assay [2] (Homo sapiens) and in assay [3] (Homo sapiens) were 3.69 µM and 3.8 µM, respectively.
With `CCCCCCCP(=O)(C(C)CC)C(C)CC` (centres unmarked) [IV-1], in assay [1], the “Peak (FLIPR)” value is listed as 31,000. In assay [5], the “293/Trp-p8 Cell Killing” value is on record as “Yes”.
Take `Cc1cc(NC(=O)[C@@H]2C[C@H](C)CC[C@H]2C(C)C)ccc1C(C)C` [IIa6-4, 2-Isopropyl-5-methyl-cyclohexanecarboxylic acid(4-isopropyl-3-methyl-phenyl)-amide]: the IC50 in assay [2] (Homo sapiens) turned out to be 4.37 µM; in assay [3] (Homo sapiens), 5.05 µM.
On to `CC(C)[C@@H]1CC[C@@H](C)C[C@H]1C(=O)Nc1ccccc1` [IIa4-2], for which the IC50 in assay [2] (Homo sapiens) was determined as 3.38 µM; in assay [3] (Homo sapiens), 3.21 µM.
For the compound `CC(C)[C@@H]1CC[C@@H](C)C[C@H]1C(=O)Nc1ccc(C(C)(C)C)cc1` [IIa4-11, 2-Isopropyl-5-methyl-cyclohexanecarboxylic acid(4-tert-butyl-phenyl)-amide], the IC50 came out at 1.41 µM in assay [2] (Homo sapiens) and 1.23 µM in assay [3] (Homo sapiens).
Consider `CCOC(=O)CNC(=O)C1CC(C)CCC1C(C)C` (centres unmarked) [XIII-1], for which the “Peak (FLIPR)” value in assay [1] is 29,000. Moreover, in assay [5], the “293/Trp-p8 Cell Killing” value is “Yes”. Moreover, in assay [6], the “PC3/Trp-p8 Cell Killing” value is recorded as “Yes”.
As for `CC1CCC(C(C)C)C(C(=O)NC(C)(C)C)C1` (centres unmarked) [IIb-4], the “Peak (FLIPR)” value in assay [1] is 25,100. In addition, the “293/Trp-p8 Cell Killing” value in assay [5] is “Yes”.
Regarding `CC1CCC(C(C)C)C(C(=O)OCCO)C1` (centres unmarked) [Compound V-2], in assay [1], the “Peak (FLIPR)” value was 17,000.
The same measure, in the same setting: next, `COC(=O)CNC(=O)C1CC(C)CCC1C(C)C` (centres unmarked) [XIII-2]: 25,000; `CCC(C)NC(=O)C1CC(C)CCC1C(C)C` (centres unmarked) [IIb-5]: 23,300.
With `CC1CCC(C(C)C)C(C(=O)Nc2ccc(N3CCOCC3)cc2)C1` (centres unmarked) [IIa4-9, 2-Isopropyl-5-methyl-cyclohexanecarboxylic acid (4-morpholin-4-yl-phenyl)-amide], the values for the IC50 in assay [2] (Homo sapiens) and in assay [3] (Homo sapiens) were 1.45 µM and 1.28 µM, respectively.
On the same counts, the results for `Cc1ccc(NC(=O)[C@@H]2C[C@H](C)CC[C@H]2C(C)C)cc1` [IIa4-7] are 1.14 µM and 1.21 µM.
In the case of `CC1CCC(C(C)C)C(C(=O)NC(C)C)C1` (centres unmarked) [IIb-2], the “Peak (FLIPR)” value in assay [1] is on record as 25,100. Moreover, in assay [5], the “293/Trp-p8 Cell Killing” value was “Yes”. The “PC3/Trp-p8 Cell Killing” value in assay [6] was “Yes”.
As for `CC1CCC(C(C)C)C(C(=O)OCCOCCO)C1` (centres unmarked) [Compound V-4], in assay [1], the “Peak (FLIPR)” value was 17,500.
On the same count and under the same terms, to `CCCCCCP(=O)(C(C)CC)C(C)CC` (centres unmarked) [IV-3] belongs 22,000.
Regarding `COc1ccc(NC(=O)[C@@H]2C[C@H](C)CC[C@H]2C(C)C)c(C)c1` [IIa12-1], the IC50 in assay [2] (Homo sapiens) stood at 0.93 µM; in assay [3] (Homo sapiens), 1.14 µM.
`O=C1NC(c2cccc([N+](=O)[O-])c2)=CCN1c1ccccc1O` [Icilin, 3-(2-Hydroxy-phenyl)-6-(3-nitro-phenyl)-3,4-dihydro-1H-pyrimidin-2-one, reference compound]: in assay [1], the “Peak (FLIPR)” value is reported as 20,000. Further, the IC50 in assay [3] (Homo sapiens) worked out at 79.2 µM.
With `CC(C)c1ccc(NC(=O)[C@@H]2C[C@H](C)CC[C@H]2C(C)C)cc1` [IIa4-4], the figures for the IC50 in assay [2] (Homo sapiens), in assay [3] (Homo sapiens) and in assay [4] were 0.98 µM, 0.76 µM and 3.21 µM, respectively.
On the same counts, the results for `CCCc1ccc(NC(=O)[C@@H]2C[C@H](C)CC[C@H]2C(C)C)cc1` [IIa4-12, 2-Isopropyl-5-methyl-cyclohexanecarboxylic acid(4-propyl-phenyl)-amide] are 4.93 µM, 5.65 µM and 12.9 µM.
In the case of `CC1CCC(C(C)C)C(C(=O)Nc2ccc3c(c2)CCC3)C1` (centres unmarked) [IIa6-3, 2-Isopropyl-5-methyl-cyclohexanecarboxylic acid indan-5-ylamide], the IC50 came out at 1.71 µM in assay [2] (Homo sapiens) and 1.35 µM in assay [3] (Homo sapiens).
